This is an account of results in ChEMBL document CHEMBL5370576, “Design, synthesis and biological evaluation of 2,4,6- trisubstituted triazine derivatives as new nonpeptide small-molecule SIRT5 inhibitors” (Bioorg Med Chem, 2023).

Calls of active or inactive are those of the source. The rule behind the calls is not given here.

Assay [1] addresses T1, NAD-dependent protein deacylase sirtuin-5, mitochondrial (Homo sapiens, UniProt Q9NXA8). Kind of assay: Inhibition of human recombinant SIRT5 (34 to 269 residues) using Ac-Leu-Gly-Ser-Lys (Su)-AMC as fluorogenic substrate incubated for 2 hrs in presence of NAD+ by fluorescence based analysis.
Target sequence in this assay (Q9NXA8 whole entry, the tested form may be a part): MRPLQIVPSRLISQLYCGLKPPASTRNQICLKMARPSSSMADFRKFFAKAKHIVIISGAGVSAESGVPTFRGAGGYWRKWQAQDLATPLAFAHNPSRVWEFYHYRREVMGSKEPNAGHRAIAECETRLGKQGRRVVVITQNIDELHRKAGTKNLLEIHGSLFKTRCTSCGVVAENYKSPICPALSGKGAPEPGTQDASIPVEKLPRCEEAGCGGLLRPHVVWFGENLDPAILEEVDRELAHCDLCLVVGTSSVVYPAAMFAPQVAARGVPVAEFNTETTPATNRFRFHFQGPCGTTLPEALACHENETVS
In assay [2] the target is T1, NAD-dependent protein deacylase sirtuin-5, mitochondrial. Kind of assay: Inhibition of human recombinant SIRT5 (34 to 269 residues) using Ac-Leu-Gly-Ser-Lys (Su)-AMC as fluorogenic substrate incubated for 2 hrs in presence of NAD+ at 50 uM by fluorescence based analysis.
Target sequence in this assay (Q9NXA8 whole entry, the tested form may be a part): as above
The target is the same in assay [3]. Kind of assay: Inhibition of human recombinant SIRT5 (34 to 269 residues) using Ac-Leu-Gly-Ser-Lys (Su)-AMC as fluorogenic substrate incubated for 2 hrs in presence of NAD+ at 100 uM by fluorescence based analysis.
Target sequence in this assay (Q9NXA8 whole entry, the tested form may be a part): as above
Assay [4] shares this target. Kind of assay: Inhibition of human recombinant SIRT5 (34 to 269 residues) using Ac-Leu-Gly-Ser-Lys (Su)-AMC as fluorogenic substrate incubated for 2 hrs in presence of NAD+ at 200 uM by fluorescence based analysis.
Target sequence in this assay (Q9NXA8 whole entry, the tested form may be a part): as above
Assay [5] shares this target. Kind of assay: Inhibition of human recombinant SIRT5 (34 to 269 residues) using Ac-Leu-Gly-Ser-Lys (Su)-AMC as fluorogenic substrate incubated for 2 hrs in presence of NAD+ at 400 uM by fluorescence based analysis.
Target sequence in this assay (Q9NXA8 whole entry, the tested form may be a part): as above
Assay [6] shares this target. Kind of assay: Inhibition of human recombinant SIRT5 (34 to 269 residues) using Ac-Leu-Gly-Ser-Lys (Su)-AMC as fluorogenic substrate incubated for 2 hrs in presence of NAD+ at 800 uM by fluorescence based analysis.
Target sequence in this assay (Q9NXA8 whole entry, the tested form may be a part): as above
Assay [7] has the same target. Kind of assay: Competitive inhibition of human recombinant SIRT5 (34 to 269 residues) incubated for 2 hrs in presence of 11 uM of fluorogenic substrate Ac-Leu-Gly-Ser-Lys (Su)-AMC by fluorescence based analysis.
Assay [8] shares this target. Kind of assay: Competitive inhibition of human recombinant SIRT5 (34 to 269 residues) incubated for 2 hrs in presence of 33 uM of fluorogenic substrate Ac-Leu-Gly-Ser-Lys (Su)-AMC by fluorescence based analysis.
Assay [9] shares this target. The assay can be described thus: Competitive inhibition of human recombinant SIRT5 (34 to 269 residues) incubated for 2 hrs in presence of 100 uM of fluorogenic substrate Ac-Leu-Gly-Ser-Lys (Su)-AMC by fluorescence based analysis.
The target is the same in assay [10]. The assay can be described thus: Competitive inhibition of human recombinant SIRT5 (34 to 269 residues) incubated for 2 hrs in presence of 300 uM of fluorogenic substrate Ac-Leu-Gly-Ser-Lys (Su)-AMC by fluorescence based analysis.
Assay [11] shares this target. The assay can be described thus: Competitive inhibition of human recombinant SIRT5 (34 to 269 residues) using Ac-Leu-GlySer-Lys (Su)-AMC as substrate at 0 to 50 uM by Lineweaver-Burk plot analysis. As to conditions: dose 0-50 µM.
Target sequence in this assay (Q9NXA8 37-310 limits assumed): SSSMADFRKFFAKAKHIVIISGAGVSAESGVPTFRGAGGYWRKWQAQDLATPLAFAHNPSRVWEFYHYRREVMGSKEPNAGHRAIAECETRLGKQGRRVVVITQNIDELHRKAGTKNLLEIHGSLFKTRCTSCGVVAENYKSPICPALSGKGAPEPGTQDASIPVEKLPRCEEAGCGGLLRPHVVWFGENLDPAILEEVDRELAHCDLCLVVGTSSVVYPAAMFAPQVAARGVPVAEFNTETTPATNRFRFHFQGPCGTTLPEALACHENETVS
The target is the same in assay [12]. The assay can be described thus: Binding affinity to human recombinant SIRT5 (34 to 269 residues) assessed as thermal stabilization by measuring change in melting temperature at 50 uM and measured after 10 mins by SYPRO orange dye based thermal shift assay.
Target sequence in this assay (Q9NXA8 37-310 limits assumed): as above
Assay [13] has the same target. The assay can be described thus: Binding affinity to human recombinant SIRT5 (34 to 269 residues) assessed as thermal stabilization by measuring change in melting temperature at 100 uM and measured after 10 mins by SYPRO orange dye based thermal shift assay.
Target sequence in this assay (Q9NXA8 37-310 limits assumed): as above
Assay [14] has the same target. The assay can be described thus: Binding affinity to human recombinant SIRT5 (34 to 269 residues) assessed as thermal stabilization by measuring melting temperature at 50 uM and measured after 10 mins by SYPRO orange dye based thermal shift assay.
Target sequence in this assay (Q9NXA8 37-310 limits assumed): as above
Assay [15] shares this target. Kind of assay: Binding affinity to human recombinant SIRT5 (34 to 269 residues) assessed as thermal stabilization by measuring melting temperature at 100 uM and measured after 10 mins by SYPRO orange dye based thermal shift assay.
Target sequence in this assay (Q9NXA8 37-310 limits assumed): as above
Assay [16] addresses T2, NAD-dependent protein deacetylase sirtuin-1 (Homo sapiens, UniProt Q96EB6).
T2 sequence (Q96EB6 whole entry): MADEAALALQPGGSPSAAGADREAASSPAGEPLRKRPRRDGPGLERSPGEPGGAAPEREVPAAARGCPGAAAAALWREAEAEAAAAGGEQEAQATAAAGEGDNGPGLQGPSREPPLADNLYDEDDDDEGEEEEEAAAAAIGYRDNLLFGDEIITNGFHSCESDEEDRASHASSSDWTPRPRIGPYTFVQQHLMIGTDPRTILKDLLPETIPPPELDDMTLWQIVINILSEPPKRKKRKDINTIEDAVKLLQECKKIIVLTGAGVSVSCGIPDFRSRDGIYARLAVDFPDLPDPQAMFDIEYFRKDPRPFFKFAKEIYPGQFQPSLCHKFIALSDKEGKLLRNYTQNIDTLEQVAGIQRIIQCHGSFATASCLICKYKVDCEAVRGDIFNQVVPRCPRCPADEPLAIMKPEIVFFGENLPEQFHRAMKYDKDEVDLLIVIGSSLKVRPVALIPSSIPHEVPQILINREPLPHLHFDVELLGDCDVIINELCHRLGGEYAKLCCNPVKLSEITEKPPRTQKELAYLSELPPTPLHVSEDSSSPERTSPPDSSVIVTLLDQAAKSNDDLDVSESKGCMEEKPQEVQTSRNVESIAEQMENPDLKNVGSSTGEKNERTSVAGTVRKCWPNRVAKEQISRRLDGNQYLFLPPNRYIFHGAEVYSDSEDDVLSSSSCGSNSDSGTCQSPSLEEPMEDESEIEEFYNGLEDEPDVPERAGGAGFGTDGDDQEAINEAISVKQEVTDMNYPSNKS
The assay can be described thus: Inhibition of recombinant SIRT1 (unknown origin) using Ac-Arg-Leu-Ile-Lys-(Ac) AMC as substrate in presence of NAD+.

The target in assay [17] is T3, NAD-dependent protein deacetylase sirtuin-2 (Homo sapiens, UniProt Q8IXJ6).
T3 sequence (Q8IXJ6 whole entry): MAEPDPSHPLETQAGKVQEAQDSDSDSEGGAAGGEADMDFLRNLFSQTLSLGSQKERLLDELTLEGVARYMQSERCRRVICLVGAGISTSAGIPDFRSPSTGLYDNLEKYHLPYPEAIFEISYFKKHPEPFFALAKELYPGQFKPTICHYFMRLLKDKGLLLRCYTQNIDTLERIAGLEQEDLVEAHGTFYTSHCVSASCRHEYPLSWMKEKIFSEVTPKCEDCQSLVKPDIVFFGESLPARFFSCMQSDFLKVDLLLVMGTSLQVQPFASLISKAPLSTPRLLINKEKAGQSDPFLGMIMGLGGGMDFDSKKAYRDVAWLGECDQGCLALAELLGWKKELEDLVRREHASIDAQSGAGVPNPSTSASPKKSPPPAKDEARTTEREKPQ
Kind of assay: Inhibition of human recombinant SIRT2 using Ac-Glu-Thr-Asp-Lys (Dec)-AM as substrate in presence of NAD+.

`O=C(O)CCNC(=S)NCCCNc1nc(Nc2ccccc2Cl)nc(NC2CC2)n1`: the IC50 in assay [1] was 18.2 µM.

On to `O=C(O)CCNC(=S)NCCCNc1nc(Nc2ccccc2Cl)nc(NC2CCC2)n1`, for which, in assay [1], the IC50 turned out to be 25.1 µM.

For the compound `O=C(O)CCNC(=S)NCCCNc1nc(NCc2ccccc2)nc(Nc2ccccc2Cl)n1`, the IC50 in [1] is 14.5 µM.

Consider `O=C(O)CCNC(=S)NCCCNc1nc(NCCc2ccccc2)nc(Nc2ccccc2Cl)n1`, for which the IC50 in [1] was determined as 6.97 µM.

With `O=C(O)CCNC(=S)NCCCNc1nc(Nc2ccccc2Cl)nc(NC2CCCC2)n1`, the IC50 in assay [1] was found to be 19.4 µM.

As for `Cc1cccc(Nc2nc(NCCCNC(=S)NCCC(=O)O)nc(Nc3ccccc3Cl)n2)c1Br`, the IC50 in assay [1] was 6.16 µM.

With `Cc1c(Br)cccc1Nc1nc(NCCCNC(=S)NCCC(=O)O)nc(Nc2ccccc2Cl)n1`, the IC50 in assay [1] is 49.9 µM.

On to `CC[C@H](Nc1nc(NCCCNC(=S)NCCC(=O)O)nc(Nc2ccccc2Cl)n1)c1ccccc1`, for which the IC50 in [1] worked out at 9.43 µM.

Consider `O=C(O)CCNC(=S)NCCCNc1nc(Nc2cc(F)cc(F)c2)nc(Nc2ccccc2Cl)n1`, for which the IC50 in assay [1] was 21.4 µM.

For the compound `COc1cc(Nc2nc(NCCCNC(=S)NCCC(=O)O)nc(Nc3ccccc3Cl)n2)cc(OC)c1`, the IC50 in [1] worked out at 4.07 µM; in [2] it was 4.77 µM; in assay [3] it was 4.83 µM; in assay [4], 3.27 µM; in assay [5] it was 3.48 µM; in assay [6], 4.66 µM. Moreover, the IC50 in [7] came out at 7.93 µM; in assay [8] it was 14.3 µM; in [9], 29.2 µM; in [10], 42.5 µM; in assay [16], 95.9 µM; in [17] it was 111 µM. Moreover, the inhibition result in assay [11] was “Active”. In addition, the results for the ΔTm in assay [12] and in [13] were 2.91 °C and 3.29 °C, respectively. Moreover, the Tm came out at 69.4 °C in assay [14] and 69.7 °C in assay [15].

Regarding `CC(C)(C)OC(=O)[C@H](Nc1nc(NCCCNC(=S)NCCC(=O)O)nc(Nc2ccccc2Cl)n1)c1ccccc1`, the IC50 in assay [1] was 21.5 µM.

In the case of `O=C(O)CCNC(=S)NCCCNc1nc(Nc2ccccc2)nc(Nc2ccccc2Cl)n1`, the IC50 is 5.38 µM in assay [1]; 2.27 µM in assay [2]; 3.35 µM in assay [3]; 4.68 µM in assay [4]; 4.05 µM in [5]; 6.74 µM in assay [6]. The IC50 in [7] is 3.21 µM; in assay [8], 5.88 µM; in assay [9], 14.2 µM; in assay [10], 29.6 µM; in assay [16], 21.9 µM; in assay [17], 136 µM.

As to `CC(CCc1ccccc1)Nc1nc(NCCCNC(=S)NCCC(=O)O)nc(Nc2ccccc2Cl)n1` (stereo unspecified), the IC50 in [1] was determined as 27 µM.

As to `O=C(O)CCNC(=S)NCCCNc1nc(Nc2ccccc2Cl)nc(N2CCCC2c2ccccc2)n1` (stereo unspecified), in assay [1], the IC50 came to 13 µM.

As usually defined, the IC50 is the concentration needed to halve the response being measured. Broadly, the ΔTm is the change in melting temperature against a reference sample. For orientation: Tm means the temperature at the midpoint of the melting transition.
